The subject of assay [1] is zeta-globin gene (hbae5) expression in zebrafish embryos. Kind of assay: Whole-mount mRNA in situ hybridization (WISH) of zeta-globin gene (hbae5) in zebrafish embryos. It is filed as in vivo. The settings on record: 5 μmon, from 96 hours post fertilization, 24 hours treatment. How it is done: (§1) K562 cells were cultured in RPMI 1640 medium supplemented with 10% (v/v) fetal bovine serum; Hemin was dissolved into 0.2 mol/L NaOH solution, and the working concentration for treating K562 cells is 20 μmon; Triac, T3 and T4 were dissolved into dimethyl sulfoxide (DMSO), and the working concentration for treating K562 cells and zebrafish embryos is 20 μmon and 5 μmon, respectively.
During the development of zebrafish embryos, Triac, T3 and T4 were incubated with the zebrafish embryos at 96 hours post fertilization. After treatment with Triac, T3 and T4 for 24 hours, respectively, zebrafish embryos were fixed by 4% paraformaldehyde. The expression of zeta-globin gene (hbae5) was detected by Whole-mount mRNA in situ hybridization (WISH).

The test system is the same in assay [2]. Briefly: qPCR of zeta-globin gene (hbae5) expression in zebrafish embryos. The settings on record: 5 μmon, from 96 hours post fertilization, 24 hours treatment. The assay is classed as in vivo. How it is done: as §1
During the development of zebrafish embryos, Triac, T3 and T4 were incubated with the zebrafish embryos at 96 hours post fertilization. After treatment with Triac, T3 and T4 for 24 hours, respectively, zebrafish embryos were collected. TRIzol reagent (Invitrogen) was used to extract total RNA, then a reverse transcription kit (ReverTra Ace, TOYOBO) was used to synthesize cDNA, and finally, a SYBRGreen Realtime PCR Master Mix (TOYOBO) reagent was used to perform quantitative PCR.
(§2) A quantitative PCR reaction system was as follows:
(§3) Conditions for a quantitative PCR reaction were as follows: • Hot start: 95° C., 10 minutes; • Denaturation: 95° C., 10 seconds; and • Annealing/stretching: 60° C., 30 seconds. • 40 cycles.
(§4) Dissolution Curve Analysis.
On the technique in general: Real-time PCR tracks product formation cycle by cycle.

Assay [3] relates to zeta-globin gene (HBZ) expression in K562 cells. Kind of assay: qPCR of zeta-globin gene (HBZ) expression in hemin-treated K562 cells. The assay is classed as cell-based, human. The conditions noted are these: hemin 20 μmon plus Triac 20 μmon, 72 hours. How it is done:
as §1
K562 cells were treated with hemin or hemin plus Triac for 72 hours, respectively, centrifugation was performed at 2000 rpm for 5 minutes to collect cells, a TRIzol reagent (Invitrogen) was used to extract total RNA, then a reverse transcription kit (ReverTra Ace, TOYOBO) was used to synthesize cDNA, and finally, a SYBR Green Realtime PCR Master Mix (TOYOBO) reagent was used to perform quantitative PCR.
as §2, §3, §4

For the compound `N[C@@H](Cc1cc(I)c(Oc2ccc(O)c(I)c2)c(I)c1)C(=O)O` [T3, 3,3′,5-Triiodo-L-thyronine], in assay [1], the “induction of expression of zeta-globin gene (hbae5), WISH” value is recorded as “significantly induce”. Further, in assay [2], the “up-regulation of expression of zeta-globin gene (hbae5), qPCR” value turned out to be 31 folds.
On the same counts, the results for `N[C@@H](Cc1cc(I)c(Oc2cc(I)c(O)c(I)c2)c(I)c1)C(=O)O` [T4, 3,3′,5,5′-tetraiodothyronine] are “significantly induce” and 41 folds.
In the case of `O=C(O)Cc1cc(I)c(Oc2ccc(O)c(I)c2)c(I)c1` [Triac, 2-[4-(4-hydroxy-3-iodophenoxy)-3,5-diiodophenyl] acetic acid], the “induction of expression of zeta-globin gene (hbae5), WISH” value in assay [1] is given as “significantly induce”. Also, the “up-regulation of expression of zeta-globin gene (hbae5), qPCR” value in assay [2] came out at 76 folds. Moreover, in assay [3], the “up-regulation of expression of zeta-globin gene (HBZ), qPCR” value came to 50.9 folds.

The record behind these values is patent US20230293470A1, “APPLICATION OF THYROID HORMONES AND ITS ANALOGUES IN PREPARATION OF DRUGS FOR TREATING ALPHA-THALASSEMIA” (SHANGHAI SPH RARE DISEASE PHARMACEUTICAL CO., LTD., priority 2020, published 2023).
